Experimental data from patent US9206396B2, “Methods and devices for quantitative viral assays” (Wisconsin Alumni Research Foundation, priority 2005, dated 2015).
Values after ≈ are worked out from the molar mass of the structure shown. “Also recorded” adds a separate entry of the source. Where two headings read alike, the source gives them in different places.

Legend:
Experiment in all cases: microbe, parasite or virus in culture
Assay type in all cases: cell-based, recombinant VSV in BHK cells
rVSV-GFP [1] = tested on: rVSV-GFP
rVSV-GFP [2] = tested on: rVSV-GFP; remark: listed apart in the source
rVSV-GFP [3] = tested on: rVSV-GFP; remark: listed apart in the source

Structure (SMILES): O=c1[nH]cc(F)c(=O)[nH]1 [5-fluorouracil]
- Infection at drug concentration of 16 μg/ml, plaque assay (rVSV-GFP [1]): retained detectable infection
- IC50 (rVSV-GFP [1]; Vesicular stomatitis virus, read-out: IC50, drug concentration required to reduce the number of plaques by 50%): 16 mg/L (≈ 123 µM)
- Infection at drug concentration of 16 μg/ml, yield assay (rVSV-GFP [2]): retained detectable infection
- IC50 (rVSV-GFP [2]; Vesicular stomatitis virus, read-out: IC50, drug concentration required to reduce the virus yield by 50%): 4 mg/L (≈ 30.8 µM)
- Detection of comets at 16 μg/ml (rVSV-GFP [3]): comets could no longer be detected
- Inhibition of VSV comet formation (rVSV-GFP [3]): Dose-dependent inhibition; also recorded: inhibited the formation of comets in a dose-dependent manner
- IC50 (rVSV-GFP [3]; Vesicular stomatitis virus, read-out: 50 percent inhibition concentration (IC50), virus infectivity, comet assay): 1 mg/L (≈ 7.69 µM)
